# Results: US8138168B1 (Takeda Pharmaceutical Company Limited, priority 2007, dated 2012)
# Target: T1, Recombinant human renin (Homo sapiens, UniProt P00797)
# T1 construct: isolate the active form (residues 67-406); made in house; host or cells: FreeStyle 293-F cells (transient expression of pcDNA3.1(+)/hREN)
# T1 sequence (P00797 67-406): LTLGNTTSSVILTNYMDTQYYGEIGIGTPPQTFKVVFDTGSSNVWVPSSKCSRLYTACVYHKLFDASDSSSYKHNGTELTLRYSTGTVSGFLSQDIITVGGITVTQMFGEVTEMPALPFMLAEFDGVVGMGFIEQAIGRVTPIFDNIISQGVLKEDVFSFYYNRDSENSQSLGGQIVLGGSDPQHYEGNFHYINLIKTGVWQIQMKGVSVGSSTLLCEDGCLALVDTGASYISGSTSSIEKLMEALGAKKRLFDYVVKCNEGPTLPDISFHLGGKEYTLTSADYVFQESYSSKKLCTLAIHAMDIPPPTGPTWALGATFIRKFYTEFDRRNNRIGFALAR
# Test: In vitro enzymatic activity assay of renin inhibitors (fluorogenic peptide substrate)
# Type: biochemical
# Conditions: read-out: IC50 of Exemplified Compounds Against Renin
# Procedure: Test compounds in varying concentrations may be reacted with recombinant human renin in the presence of substrate, e.g., QXL520-γ-Abu-[…](HiLyteFluo488)-Arg-OH (Anaspec, San Jose, Calif.). […] Inhibition constants (IC50) may be calculated by non-linear curve fitting of the compound concentrations and fluorescence intensities to the standard IC50 equation.
# Solutions of test compounds in varying concentrations mM final concentration) are prepared in dimethyl sulfoxide (DMSO) and then diluted into assay buffer comprising 50 mM Hepes, 1 mM EDTA, 1 mM DTT, 0.1 mg/mL BSA, 0.01% Brij35, pH 7.4. Alternatively, the assay can be performed with a high BSA concentration, wherein the buffer contains an additional 2% BSA.
# Recombinant human renin (3 nM final concentration) is added to the dilutions and pre-incubated with the compounds for 10 minutes at 37° C. […] After pre-incubation, the reaction is initiated with of substrate QXL520-γ-Abu-[…](HiLyteFluo488)-Arg-OH (Anaspec, San Jose, Calif.). The final DMSO in the assay is 5%. The total volume of the reaction mixture is 20 μL, which can be placed on Greiner 384-well small volume plates.
# The fluorescence intensity is determined upon the addition of substrate and determined again after incubation at 37° C. for one hour. The fluorescence intensity of a blank (no inhibition) using vehicle alone is also determined. Renin activity is linearly proportional to the change in fluorescence observed (final-initial).
row,SMILES,IC50
1,"N[C@@H](CC(=O)N1CCC[C@@H](c2nc3ccccc3[nH]2)C1)Cc1ccc(-c2ccccc2)cc1 [Compound 71, (R)-1-((R)-3-(1H-benzo[d]imidazol-2-yl)piperidin-1-yl)-3-amino-4-(biphenyl-4-yl)butan-1-one]",> 1000 nM
2,"COCCCn1c([C@@H]2CCCN(C(=O)C[C@H](N)Cc3ccc(-c4ccccc4)cc3)C2)nc2ccncc21 [Compound 103, (R)-3-amino-4-(biphenyl-4-yl)-1((R)-3-(3-(3-methoxypropyl)-3H-imidazo[4,5-c]pyridin-2-yl)piperidin-1-yl)butan-1-one]",> 1000 nM
3,"COCCCn1c([C@@H]2CCCN(C(=O)C[C@H](N)CNC(=O)N3CCOCC3)C2)nc2ccccc21 [Compound 328, N-((S)-2-amino-4-((R)-3-(1-(3-methoxypropyl)-1H-benzo[d]imidazol-2-yl)piperidin-1-yl)-4-oxobutyl)morpholine-4-carboxamide]",> 1000 nM
4,"COCCCn1c([C@@H]2CCCN(C(=O)C[C@H](N)CNC(=O)Nc3ccccc3C(C)(C)C)C2)nc2ccccc21 [Compound 302, 1-((S)-2-amino-4-((R)-3-(1-(3-methoxypropyl)-1H-benzo[d]imidazol-2-yl)piperidin-1-yl)-4-oxobutyl)-3-(2-tert-butylphenyl)urea]",100 to 1000 nM
5,"CN1CCOc2cc(-c3ccc(C[C@@H](N)CC(=O)N4CCC[C@@H](c5nc6ccccc6n5CCC(N)=O)C4)cc3)ccc21 [Compound 447, 3-(2-((R)-1-((R)-3-amino-4-(4-(4-methyl-3,4-dihydro-2H-benzo[b][1,4]oxazin-7-yl)phenyl)butanoyl)piperidin-3-yl)-1H-benzo[d]imidazol-1-yl)propanamide]",100 to 1000 nM
6,"N[C@H](CCc1ccccc1)CC(=O)N1CCCC(c2nc3ccccc3[nH]2)C1 (stereo partly drawn) [Compound 32, (3R)-1-(3-(1H-benzo[d]imidazol-2-yl)piperidin-1-yl)-3-amino-5-phenylpentan-1-one]",> 1000 nM
7,"COCCCn1c([C@@H]2CCCN(C(=O)[C@@H]3CN(S(=O)(=O)c4cccc(-c5noc(C)n5)c4)C[C@H]3N)C2)nc2ccccc21 [Compound 409, ((3R,4S)-4-amino-1-(3-(5-methyl-1,2,4-oxadiazol-3-yl)phenylsulfonyl)pyrrolidin-3-yl)((R)-3-(1-(3-methoxypropyl)-1H-benzo[d]imidazol-2-yl)piperidin-1-yl)methanone]",> 1000 nM
8,"COc1cc(OC)cc([C@@H](N)CC(=O)N2CCCC(c3nc4ccccc4[nH]3)C2)c1 (stereo partly drawn) [Compound 31, (3S)-1-(3-(1H-benzo[d]imidazol-2-yl)piperidin-1-yl)-3-amino-3-(3,5-dimethoxyphenyl)propan-1-one]",> 1000 nM
9,"COCCCn1c([C@@H]2CCCN(C(=O)C[C@H](N)CNC(=O)c3ccccc3)C2)nc2ccccc21 [Compound 317, N-((S)-2-amino-4-((R)-3-(1-(3-methoxypropyl)-1H-benzo[d]imidazol-2-yl)piperidin-1-yl)-4-oxobutyl)benzamide]",100 to 1000 nM
10,"COCCCn1c([C@@H]2CCCN(C(=O)C[C@H](N)c3cccc(Cl)c3)C2)nc2ccccc21 [Compound 83, (S)-3-amino-3-(3-chlorophenyl)-1((R)-3-(1-(3-methoxypropyl)-1H-benzo[d]imidazol-2-yl)piperidin-1-yl)propan-1-one]",> 1000 nM
11,"NC(=O)CCn1c([C@@H]2CCCN(C(=O)C[C@H](N)Cc3ccc(-c4ccc5c(c4)OC(F)(F)O5)cc3)C2)nc2ccccc21 [Compound 483, 3-(2-((R)-1-((R)-3-amino-4-(4-(2,2-difluorobenzo[d][1,3]dioxol-5-yl)phenyl)butanoyl)piperidin-3-yl)-1H-benzo[d]imidazol-1-yl)propanamide]",100 to 1000 nM

# Continued, values first:
row,IC50,SMILES
1,< 100 nM,"COCCCn1c([C@@H]2CCCN(C(=O)C[C@H](N)Cc3ccc(-c4ccc5c(c4)OC(F)(F)O5)cc3)C2)nc2c(F)cccc21 [Compound 454, (R)-3-amino-4-(4-(2,2-difluorobenzo[d][1,3]dioxol-5-yl)phenyl)-1-((R)-3-(4-fluoro-1-(3-methoxypropyl)-1H-benzo[d]imidazol-2-yl)piperidin-1-yl)butan-1-one]"
2,100 to 1000 nM,"COCCCn1c([C@@H]2CCCN(C(=O)[C@@H]3CN(S(=O)(=O)c4ccc(OC)cc4[N+](=O)[O-])C[C@H]3N)C2)nc2ccccc21 [Compound 381, ((3R,4S)-4-amino-1-(4-methoxy-2-nitrophenylsulfonyl)pyrrolidin-3-yl)((R)-3-(1-(3-methoxypropyl)-1H-benzo[d]imidazol-2-yl)piperidin-1-yl)methanone]"
3,100 to 1000 nM,"COCCCn1c([C@@H]2CCCN(C(=O)[C@@H]3CN(S(=O)(=O)c4ccc(Cl)c(Cl)c4)C[C@H]3N)C2)nc2ccccc21 [Compound 361, ((3R,4S)-4-amino-1-(3,4-dichlorophenylsulfonyl)pyrrolidin-3-yl)((R)-3-(1-(3-methoxypropyl)-1H-benzo[d]imidazol-2-yl)piperidin-1-yl)methanone]"
4,< 100 nM,"CNC(=O)Nc1ccc(-c2ccc(C[C@@H](N)CC(=O)N3CCC[C@@H](c4nc5ccccc5n4CCCOC)C3)cc2)cc1 [Compound 175, 1-(4′-((R)-2-amino-4-((R)-3-(1-(3-methoxypropyl)-1H-benzo[d]imidazol-2-yl)piperidin-1-yl)-4-oxobutyl)biphenyl-4-yl)-3-methylurea]"
5,< 100 nM,"COCCCn1c([C@@H]2CCCN(C(=O)C[C@H](N)Cc3ccc(-c4cnc(N)nc4)cc3)C2)nc2ccccc21 [Compound 154, (R)-3-amino-4-(4-(2-aminopyrimidin-5-yl)phenyl)-1-((R)-3-(1-(3-methoxypropyl)-1H-benzo[d]imidazol-2-yl)piperidin-1-yl)butan-1-one]"
6,< 100 nM,COCCCn1c([C@@H]2CCCN(C(=O)C[C@H](N)Cc3ccc(-n4c(=O)[nH]c5ccccc54)cc3)C2)nc2ccccc21 [Compound 212]
7,100 to 1000 nM,"COCCCn1c([C@@H]2CCCN(C(=O)CC(O)Cc3ccc(-c4ccccc4)cc3)C2)nc2ccccc21 (stereo in doubt) [Compound 73, (R)-4-(Biphenyl-4-yl)-3-hydroxy-1-(3-(1-(3-methoxypropyl)-1H-benzo[d]imidazol-2-yl)piperidin-1-yl)butan-1-one]"
8,< 100 nM,"COCCCn1c([C@@H]2CCCN(C(=O)C[C@H](N)CNC(=O)c3ccc(-c4ccccc4)s3)C2)nc2ccccc21 [Compound 252, N-((S)-2-amino-4-((R)-3-(1-(3-methoxypropyl)-1H-benzo[d]imidazol-2-yl)piperidin-1-yl)-4-oxobutyl)-5-phenylthiophene-2-carboxamide]"
9,100 to 1000 nM,"NC(=O)CCn1c([C@@H]2CCCN(C(=O)C[C@H](N)Cc3ccc(-c4cnc(N)nc4)cc3)C2)nc2ccccc21 [Compound 481, 3-(2-((R)-1-((R)-3-amino-4-(4-(2-aminopyrimidin-5-yl)phenyl)butanoyl)piperidin-3-yl)-1H-benzo[d]imidazol-1-yl)propanamide]"
10,< 100 nM,"COCCCn1c([C@@H]2CCCN(C(=O)C[C@H](N)Cc3cccc(-c4ccccc4)c3)C2)nc2ccccc21 [Compound 122, (R)-3-amino-4-(biphenyl-3-yl)-1-((R)-3-(1-(3-methoxypropyl)-1H-benzo[d]imidazol-2-yl)piperidin-1-yl)butan-1-one]"
11,< 100 nM,"COCCCn1c([C@@H]2CCCN(C(=O)C[C@H](N)Cc3ccc(-c4ccc(NC(C)=O)cc4)cc3)C2)nc2ccccc21 [Compound 129, N-(4′-((R)-2-amino-4-((R)-3-(1-(3-methoxypropyl)-1H-benzo[d]imidazol-2-yl)piperidin-1-yl)-4-oxobutyl)biphenyl-4-yl)acetamide]"
12,100 to 1000 nM,"COCCCn1c([C@@H]2CCCN(C(=O)C[C@H](N)Cc3ccc(N4CCC(CO)CC4)cc3)C2)nc2ccccc21 [Compound 235, (R)-3-amino-4-(4-(4-(hydroxymethyl)piperidin-1-yl)phenyl)-1-((R)-3-(1-(3-methoxypropyl)-1H-benzo[d]imidazol-2-yl)piperidin-1-yl)butan-1-one]"
13,< 100 nM,"COCCCn1c([C@@H]2CCCN(C(=O)C[C@H](N)Cc3ccc(-c4ccco4)cc3)C2)nc2ccccc21 [Compound 146, (R)-3-Amino-4-(4-(furan-2-yl)phenyl)-1-((R)-3-(1-(3-methoxypropyl)-1H-benzo[d]imidazol-2-yl)piperidin-1-yl)butan-1-one]"
14,< 100 nM,"COCCCn1c([C@@H]2CCCN(C(=O)C[C@H](N)Cc3ccc(-c4ccc5c(c4)OCCO5)cc3)C2)nc2c(F)cccc21 [Compound 455, (R)-3-amino-4-(4-(2,3-dihydrobenzo[b][1,4]dioxin-6-yl)phenyl)-1-((R)-3-(4-fluoro-1-(3-methoxypropyl)-1H-benzo[d]imidazol-2-yl)piperidin-1-yl)butan-1-one]"
